Measured values: the supplement of paper PMC10307832

Columns and labels:
Experiment in all cases: relative viability (nuclei count vs DMSO), 5 days (fraction); higher = more cells survive
RU-SKI 43 = compound: CC[C@@H](C)CNCC(=O)N1CCC2=C([C@@H]1COC3=CC=CC(=C3)C)C=CS2 [RU-SKI 43]
In short: (§1)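 Lung cancer cell lines in 1536-well plates were exposed by pinning to five library-drug doses (not always all listed) √10 apart, following an overnight hold at 37 °C. MetaXpress counted Hoechst-stained nuclei from 4× images taken after 5 days without medium change. Viability is the median ratio of treated-well to vehicle-well nuclei across plates. Plates required control CV below 25% and at least one doubling.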

Irinotecan = compound: CCc1c2c(nc3ccc(OC(=O)N4CCC(N5CCCCC5)CC4)cc13)-c1cc3c(c(=O)n1C2)COC(=O)[C@]3(O)CC [Irinotecan]
In short: as §1

MK-8033 = compound: Cn1cc(-c2cnc3ccc4ccc(CS(=O)(=O)NCc5ccccn5)cc4c(=O)c3c2)cn1 [MK-8033]
In short: as §1

Irinotecan + Crizotinib = compound: CCc1c2c(nc3ccc(OC(=O)N4CCC(N5CCCCC5)CC4)cc13)-c1cc3c(c(=O)n1C2)COC(=O)[C@]3(O)CC [Irinotecan] + C[C@@H](Oc1cc(-c2cnn(C3CCNCC3)c2)cnc1N)c1c(Cl)ccc(F)c1Cl [Crizotinib] (partner 1 µM)
In short: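 After 5 days of treatment, lung cancer cells in 1536-well plates were fixed and stained in a single step (final 0.05% Triton X-100, 1% formaldehyde, 1 ug/ml Hoechst) and their nuclei counted on 4× images. Treatment had been applied by pin tool the day after seeding as one drug alone or as a fixed anchor-drug dose with five library-drug doses (not always all listed) in √10 steps. Relative viability is the nuclei count of treated wells divided by that of vehicle wells, and values are medians of duplicate plates.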

Row | Cell Line | relative viability (RU-SKI 43; 0.1 µM) | relative viability (RU-SKI 43; 0.3162 µM) | relative viability (RU-SKI 43; 1 µM) | relative viability (RU-SKI 43; 3.162 µM) | relative viability (RU-SKI 43; 10 µM) | relative viability (Irinotecan; 0.6325 µM) | relative viability (Irinotecan; 2 µM) | relative viability (Irinotecan; 6.325 µM) | relative viability (Irinotecan; 20 µM) | relative viability (MK-8033; 0.02 µM) | relative viability (MK-8033; 0.06325 µM) | relative viability (MK-8033; 0.2 µM) | relative viability (MK-8033; 0.6325 µM) | relative viability (MK-8033; 2 µM) | relative viability (Irinotecan + Crizotinib; first compound 0.6325 µM) | relative viability (Irinotecan + Crizotinib; first compound 2 µM) | relative viability (Irinotecan + Crizotinib; first compound 6.325 µM) | relative viability (Irinotecan + Crizotinib; first compound 20 µM)
1 | NCI-H3122 | 1.06 | 1.15 | 1.08 | 1.09 | 0.983 | 0.97 | 0.625 | 0.224 | 0.176 | 0.981 | 1.03 | 0.931 | 0.985 | 1.01 | 0.25 | 0.205 | 0.173 | 0.163
2 | PC-3 [JPC-3] | 1.04 | 1.01 | 1.05 | 0.983 | 0.994 | 0.564 | 0.833 | 0.529 | 0.357 | 0.977 |  | 0.921 | 1.06 | 1 | 0.847 | 0.493 | 0.332 | 0.331
3 | PC-14 | 1.01 | 1.15 | 1.2 | 1.01 | 0.953 | 0.72 | 0.876 | 0.29 | 0.185 | 1.01 | 0.83 | 0.888 | 0.95 | 0.938 | 0.873 | 0.695 | 0.2 | 0.194
4 | RERF-LC-KJ | 1.04 | 1.12 | 1.05 | 1.01 | 0.937 | 0.871 | 0.839 | 0.542 | 0.373 | 0.999 | 1.01 | 0.934 | 1.01 | 0.948 | 0.785 | 0.533 | 0.322 | 0.342
5 | SK-LU-1 | 0.953 | 1.29 | 1.11 | 1.15 | 1.05 | 0.719 | 0.575 | 0.358 | 0.276 | 1.05 | 1.05 | 0.878 | 0.997 | 1.04 | 0.404 | 0.572 | 0.474 | 0.463
6 | SK-MES-1 | 1.05 | 1.16 | 1.01 | 1.05 | 0.977 | 0.873 | 0.799 | 0.327 | 0.236 | 0.925 | 0.935 | 0.942 | 0.96 | 0.998 | 0.93 | 0.767 | 0.272 | 0.298
7 | SW 1573 | 1.01 | 1.16 | 0.954 | 1.07 | 0.802 | 0.571 | 0.709 | 0.271 | 0.142 | 1.05 | 0.84 | 0.917 | 0.969 | 0.893 | 0.626 | 0.43 | 0.189 | 0.197
